Measured values from patent US11312719B2, “9-substituted amino triazolo quinazoline derivatives as adenosine receptor antagonists, pharmaceutical compositions and their use” (Merck Sharp & Dohme Corp., priority 2018, dated 2022).

Key:
[1] = target: human A2b adenosine receptor (Homo sapiens (Human), UniProt P29275); assay: A2b radioligand filtration binding assay; settings: membranes from HEK293 cells expressing human A2b receptor
How it was run: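 Membranes from HEK293 cells expressing human A2b receptor preincubated with compound 15 to 30 min at room temperature, then tritiated proprietary A2b antagonist (diluted to 14 nM before addition) added in PBS pH 7.4 for 60 min at room temperature. Bound radioactivity by filtration and scintillation; non-specific binding with 20 μM NECA; IC50 by 4-parameter logistic fit.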

[2] = target: human A2a adenosine receptor (Homo sapiens (Human), UniProt P29274); assay: A2a receptor affinity radioligand binding assay ([3H] SCH58261); settings: for IC50: membranes from HEK293 or CHO cells expressing human A2a receptor
Sequence of human A2a adenosine receptor (P29274 whole entry): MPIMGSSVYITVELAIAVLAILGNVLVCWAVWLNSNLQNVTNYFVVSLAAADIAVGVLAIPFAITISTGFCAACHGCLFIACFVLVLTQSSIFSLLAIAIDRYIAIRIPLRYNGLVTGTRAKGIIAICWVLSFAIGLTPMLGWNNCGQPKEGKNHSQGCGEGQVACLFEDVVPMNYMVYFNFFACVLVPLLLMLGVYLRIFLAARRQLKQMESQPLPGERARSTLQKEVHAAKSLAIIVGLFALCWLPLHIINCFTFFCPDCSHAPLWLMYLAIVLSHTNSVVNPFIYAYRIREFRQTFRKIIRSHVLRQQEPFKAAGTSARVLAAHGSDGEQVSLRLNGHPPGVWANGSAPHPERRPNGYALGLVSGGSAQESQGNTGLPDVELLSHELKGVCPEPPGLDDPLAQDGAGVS
How it was run: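 Membranes from HEK293 or CHO cells expressing human A2a were preincubated 15–30 min at room temperature with compound, then incubated 60 min at room temperature with [3H]SCH58261 (diluted to 4 nM) in 50 mM Tris pH 7.4, 10 mM MgCl2, 0.005% Tween20. Bound radioactivity was collected by filtration; nonspecific binding defined with 1 μM ZM241385; IC50 from 4-parameter logistic fit.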

Sequence of human A2b adenosine receptor (P29275 whole entry): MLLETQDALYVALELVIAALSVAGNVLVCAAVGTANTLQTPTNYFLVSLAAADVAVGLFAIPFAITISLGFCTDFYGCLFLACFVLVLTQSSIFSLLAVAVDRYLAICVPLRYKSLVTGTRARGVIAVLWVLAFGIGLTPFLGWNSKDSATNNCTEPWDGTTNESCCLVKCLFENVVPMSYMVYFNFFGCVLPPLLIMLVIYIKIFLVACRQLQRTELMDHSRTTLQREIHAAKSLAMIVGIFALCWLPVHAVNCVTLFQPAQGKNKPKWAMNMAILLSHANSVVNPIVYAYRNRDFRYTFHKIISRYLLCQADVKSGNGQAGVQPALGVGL

IC50 [1] | IC50 [2] | A2A binding % Inh. @ 1000 nM [2] | Structure (SMILES)
387 nM | 1.9 nM | – | COc1cc(F)cc2c1nc(N)n1nc(C3CCC(C)N(c4cnn(CC(C)(C)O)c4)C3)nc21 (single isomer, unassigned) [Example 118, 1-(4-((2R or 2S,5R or 5S)-5-(5-amino-9-fluoro-7-methoxy-[1,2,4]triazolo[1,5-c]quinazolin-2-yl)-2-methylpiperidin-1-yl)-1H-pyrazol-1-yl)-2-methylpropan-2-ol]
1300 nM | 51.6 nM | – | COc1cc(F)cc2c1nc(N)n1nc(C3CCC(C)N(c4cnn(CC(C)(C)O)c4)C3)nc21 (single isomer, unassigned) [Example 119, 1-(4-((2S or 2R,5S or 5R)-5-(5-amino-9-fluoro-7-methoxy-[1,2,4]triazolo[1,5-c]quinazolin-2-yl)-2-methylpiperidin-1-yl)-1H-pyrazol-1-yl)-2-methylpropan-2-ol]
7.8 nM | 0.6 nM | – | COc1cc(F)cc2c1nc(N)n1nc(C3CCC(C)N(c4cnn(CC(C)(C)O)c4)C3)nc21 (single isomer, unassigned) [Example 120, 1-(4-((2R or 2S,5S or 5R)-5-(5-amino-9-fluoro-7-methoxy-[1,2,4]triazolo[1,5-c]quinazolin-2-yl)-2-methylpiperidin-1-yl)-1H-pyrazol-1-yl)-2-methylpropan-2-ol]
5340 nM | 55.4 nM | – | COc1cc(F)cc2c1nc(N)n1nc(C3CCC(C)N(c4cnn(CC(C)(C)O)c4)C3)nc21 (single isomer, unassigned) [Example 121, 1-(4-((2S or 2R,5R or 5S)-5-(5-amino-9-fluoro-7-methoxy-[1,2,4]triazolo[1,5-c]quinazolin-2-yl)-2-methylpiperidin-1-yl)-1H-pyrazol-1-yl)-2-methylpropan-2-ol]
2060 nM | 369 nM | – | COc1cc(F)cc2c1nc(N)n1nc(C3CCC(C)N(c4cnn(C(C)(C)CO)c4)C3)nc21 (single isomer, unassigned) [Example 122, 2-(4-((2R or 2S,5R or 5S)-5-(5-amino-9-fluoro-7-methoxy-[1,2,4]triazolo[1,5-c]quinazolin-2-yl)-2-methylpiperidin-1-yl)-1H-pyrazol-1-yl)-2-methylpropan-1-ol]
422 nM | 0.3 nM | – | COc1cc(F)cc2c1nc(N)n1nc(C3CCC(C)N(c4cnn(C(C)(C)CO)c4)C3)nc21 (single isomer, unassigned) [Example 123, 2-(4-((2S or 2R,5S or 5R)-5-(5-amino-9-fluoro-7-methoxy-[1,2,4]triazolo[1,5-c]quinazolin-2-yl)-2-methylpiperidin-1-yl)-1H-pyrazol-1-yl)-2-methylpropan-1-ol]
1.7 nM | 0.3 nM | – | COc1cc(F)cc2c1nc(N)n1nc(C3CCC(C)N(c4cnn(C(C)(C)CO)c4)C3)nc21 (single isomer, unassigned) [Example 124, 2-(4-((2R or 2S,5S or 5R)-5-(5-amino-9-fluoro-7-methoxy-[1,2,4]triazolo[1,5-c]quinazolin-2-yl)-2-methylpiperidin-1-yl)-1H-pyrazol-1-yl)-2-methylpropan-1-ol]
2500 nM | 86.4 nM | – | COc1cc(F)cc2c1nc(N)n1nc(C3CCC(C)N(c4cnn(C(C)(C)CO)c4)C3)nc21 (single isomer, unassigned) [Example 125, 2-(4-((2S or 2R,5R or 5S)-5-(5-amino-9-fluoro-7-methoxy-[1,2,4]triazolo[1,5-c]quinazolin-2-yl)-2-methylpiperidin-1-yl)-1H-pyrazol-1-yl)-2-methylpropan-1-ol]
2160 nM | 2.6 nM | – | COc1cc2nc(N)n3nc(C4CCC(C)N(c5cnn(C(C)(C)CO)c5)C4)nc3c2cc1F (single isomer, unassigned) [Example 126, rac-2-(4-((2R or 2S,5R or 5S)-5-(5-amino-9-fluoro-8-methoxy-[1,2,4]triazolo[1,5-c]quinazolin-2-yl)-2-methylpiperidin-1-yl)-1H-pyrazol-1-yl)-2-methylpropan-1-ol]
1160 nM | 120 nM | – | COc1cc2nc(N)n3nc(C4CCC(C)N(c5cnn(C(C)(C)CO)c5)C4)nc3c2cc1F (single isomer, unassigned) [Example 127, 2-(4-((2R or 2S,5R or 5S)-5-(5-amino-9-fluoro-8-methoxy-[1,2,4]triazolo[1,5-c]quinazolin-2-yl)-2-methylpiperidin-1-yl)-1H-pyrazol-1-yl)-2-methylpropan-1-ol]
2.4 nM | 0.3 nM | – | COc1cc2nc(N)n3nc(C4CCC(C)N(c5cnn(C(C)(C)CO)c5)C4)nc3c2cc1F (single isomer, unassigned) [Example 128]
559 nM | 4.3 nM | – | COc1cc(F)cc2c1nc(N)n1nc(C3(F)CCCN(c4cnn(CC(C)(C)O)c4)C3)nc21 (single isomer, unassigned) [Example 133, (S or R)-1-(4-(3-(5-amino-9-fluoro-7-methoxy-[1,2,4]triazolo[1,5-c]quinazolin-2-yl)-3-fluoropiperidin-1-yl)-1H-pyrazol-1-yl)-2-methylpropan-2-ol]
4290 nM | 124 nM | – | COc1cc(F)cc2c1nc(N)n1nc(C3(F)CCCN(c4cnn(CC(C)(C)O)c4)C3)nc21 (single isomer, unassigned) [Example 134, (R or S)-1-(4-(3-(5-amino-9-fluoro-7-methoxy-[1,2,4]triazolo[1,5-c]quinazolin-2-yl)-3-fluoropiperidin-1-yl)-1H-pyrazol-1-yl)-2-methylpropan-2-ol]
7940 nM | – | 32% Inh. @ | COc1cc2nc(N)n3nc(C4CN(c5cn(CC(C)(C)O)nc5C)CCS4(=O)=O)nc3c2cc1F (single isomer, unassigned) [Example 142, (R or S)-2-(5-amino-9-fluoro-8-methoxy-[1,2,4]triazolo[1,5-c]quinazolin-2-yl)-4-(1-(2-hydroxy-2-methylpropyl)-3-methyl-1H-pyrazol-4-yl)thiomorpholine 1,1-dioxide]
7560 nM | 984 nM | – | COc1cc2nc(N)n3nc(C4CN(c5cn(CC(C)(C)O)nc5C)CCS4(=O)=O)nc3c2cc1F (single isomer, unassigned) [Example 143, (S or R)-2-(5-amino-9-fluoro-8-methoxy-[1,2,4]triazolo[1,5-c]quinazolin-2-yl)-4-(1-(2-hydroxy-2-methylpropyl)-3-methyl-1H-pyrazol-4-yl)thiomorpholine 1,1-dioxide]
7140 nM | – | 30% Inh. @ | COc1cc2nc(N)n3nc(C4CN(c5cnn(CC(C)(C)O)c5C)CCS4(=O)=O)nc3c2cc1F (single isomer, unassigned) [Example 144, (R or S)-2-(5-amino-9-fluoro-8-methoxy-[1,2,4]triazolo[1,5-c]quinazolin-2-yl)-4-(1-(2-hydroxy-2-methylpropyl)-5-methyl-1H-pyrazol-4-yl)thiomorpholine 1,1-dioxide]
8050 nM | – | 32% Inh. @ | COc1cc2nc(N)n3nc(C4CN(c5cnn(CC(C)(C)O)c5C)CCS4(=O)=O)nc3c2cc1F (single isomer, unassigned) [Example 145, (S or R)-2-(5-amino-9-fluoro-8-methoxy-[1,2,4]triazolo[1,5-c]quinazolin-2-yl)-4-(1-(2-hydroxy-2-methylpropyl)-5-methyl-1H-pyrazol-4-yl)thiomorpholine 1,1-dioxide]
